Results taken from US7109193B2, “Tricyclic diazepines tocolytic oxytocin receptor antagonists” (Wyeth, priority 2001, dated 2006).

Biological target: T1, human vasopressin V1a receptor subtype (Homo sapiens, UniProt P37288)
T1 construct: host or cells: CHO cells (pZeoSV vector for the Thibonnier line)
Test: Vasopressin binding in Chinese Hamster Ovary cell membranes expressing human vasopressin V1a subtype receptors
Settings: 100 nM, CHO cell membranes, [3H]Manning ligand, values without parentheses
Method in brief: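 Membranes from CHO cells expressing human V1a receptor were incubated with [3H]Manning ligand (added as 20 μL of 8 nM) in pH 7.4 Tris buffer with MgCl2, BSA and protease inhibitors, 60 min at room temperature. Bound radioactivity was counted after filtration; values are percent inhibition at a stated concentration or IC50.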

T1 sequence (P37288 whole entry): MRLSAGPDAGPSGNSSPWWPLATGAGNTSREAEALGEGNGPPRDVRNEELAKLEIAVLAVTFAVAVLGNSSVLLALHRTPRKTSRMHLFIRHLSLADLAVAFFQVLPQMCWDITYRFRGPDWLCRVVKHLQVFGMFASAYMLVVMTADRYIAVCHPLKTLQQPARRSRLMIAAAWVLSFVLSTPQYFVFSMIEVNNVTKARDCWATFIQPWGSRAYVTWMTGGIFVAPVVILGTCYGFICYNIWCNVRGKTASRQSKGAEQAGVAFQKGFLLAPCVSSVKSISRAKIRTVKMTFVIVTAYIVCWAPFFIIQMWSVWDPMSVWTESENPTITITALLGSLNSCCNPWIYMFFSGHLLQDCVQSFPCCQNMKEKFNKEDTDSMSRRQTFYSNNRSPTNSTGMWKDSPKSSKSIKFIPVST

| SMILES | inhibition at 0.1 µM [%] |
| --- | --- |
| Cc1ccccc1-c1ccc(C(=O)N2Cc3ccc(C(=O)NCCC4CCCN4C)n3Cc3ccccc32)cc1 (stereo not shown) [Example 166, 10-[(2′-Methyl[1,1′-biphenyl]-4-yl)carbonyl]-N-[2-(1-methyl-2-pyrrolidinyl)ethyl]-10,11-dihydro-5H-pyrrolo[2,1-c][1,4]benzodiazepine-3-carboxamide] | 29 |
| Cc1cc(C(=O)N2Cc3ccc(C(=O)NCCN4CCCCC4)n3Cc3ccccc32)ccc1-c1ccccc1C(F)(F)F [Example 161, 10-{[2-Methyl-2′-(trifluoromethyl)[1,1′-biphenyl]-4-yl]carbonyl}-N-[2-(1-piperidinyl)ethyl]-10,11-dihydro-5H-pyrrolo[2,1-c][1,4]benzodiazepine-3-carboxamide] | 8 |
| COc1cc(C(=O)N2Cc3ccc(C(=O)NCCC4CCCN4C)n3Cc3ccccc32)ccc1-c1ccccc1C (stereo not shown) [Example 167, 10-[(2-Methoxy-2′-methyl[1,1′-biphenyl]-4-yl)carbonyl]-N-[2-(1-methyl-2-pyrrolidinyl)ethyl]-10,11-dihydro-5H-pyrrolo[2,1-c][1,4]benzodiazepine-3-carboxamide] | 50 |
| COc1ccccc1-c1ccc(C(=O)N2Cc3ccc(C(=O)N(C)C4CCN(C)CC4)n3Cc3ccccc32)cc1 [Example 177, 10-[(2′-Methoxy[1,1′-biphenyl]-4-yl)carbonyl]-N-methyl-N-(1-methyl-4-piperidinyl)-10,11-dihydro-5H-pyrrolo[2,1-c][1,4]benzodiazepine-3-carboxamide] | 42 |
| Cc1ccccc1-c1ccc(C(=O)N2Cc3ccc(C(=O)N(C)C4CCN(C)C4)n3Cc3ccccc32)cc1 (stereo not shown) [Example 188, N-Methyl-10-[(2′-methyl[1,1′-biphenyl]-4-yl)carbonyl]-N-(1-methyl-3-pyrrolidinyl)-10,11-dihydro-5H-pyrrolo[2,1-c][1,4]benzodiazepine-3-carboxamide] | 89 |
| COc1ccccc1-c1ccc(C(=O)N2Cc3ccc(C(=O)NCCC4CCCN4C)n3Cc3ccccc32)cc1OC (stereo not shown) [Example 171, 10-[(2,2′-Dimethoxy[1,1′-biphenyl]-4-yl)carbonyl]-N-[2-(1-methyl-2-pyrrolidinyl)ethyl]-10,11-dihydro-5H-pyrrolo[2,1-c][1,4]benzodiazepine-3-carboxamide] | 14 |

Continued, values first:

| inhibition at 0.1 µM [%] | SMILES |
| --- | --- |
| 2 | COc1cccc(-c2cc(OC)c(C(=O)N3Cc4ccc(C(=O)N5CCN(CCN(C)C)CC5)n4Cc4ccccc43)cc2Cl)c1 [Example 202, {10-[(6-Chloro-3,3′-dimethoxy[1,1′-biphenyl]-4-yl)carbonyl]-10,11-dihydro-5H-pyrrolo[2,1-c][1,4]benzodiazepin-3-yl}{4-[2-(dimethylamino)ethyl]-1-piperazinyl}methanone] |
| 12 | C=CCN1CCN(C(=O)c2ccc3n2Cc2ccccc2N(C(=O)c2ccc(-c4cccc(OC)c4)c(C)c2)C3)CC1 [Example 223, (4-Allyl-1-piperazinyl){10-[(3′-methoxy-2-methyl[1,1′-biphenyl]-4-yl)carbonyl]-10,11-dihydro-5H-pyrrolo[2,1-c][1,4]benzodiazepin-3-yl}methanone] |
| -4 | COc1ccccc1-c1ccc(C(=O)N2Cc3ccc(C(=O)N4CCN(C(C)C)CC4)n3Cc3ccccc32)cc1OC [Example 241, {10-[(2,2′-Dimethoxy[1,1-biphenyl]4-yl)carbonyl]-10,11-dihydro-5H-pyrrolo[2,1-c][1,4]benzodiazepin-3-yl}(4-isopropyl-1-piperazinyl)methanone] |
| 39 | COc1cc(C(=O)N2Cc3ccc(C(=O)N4CCN(CCN5CCOCC5)CC4)n3Cc3ccccc32)ccc1-c1ccccc1C [Example 210, {10-[(2-Methoxy-2′-methyl[1,1′-biphenyl]-4-yl)carbonyl]-10,11-dihydro-5H-pyrrolo[2,1-c][1,4]benzodiazepin-3-yl}{4-[2-(4-morpholinyl)ethyl]-1-piperazinyl}methanone] |
